Experimental data: patent US20230210999A1, “TARGETED PROTEASE DEGRADATION (TED) PLATFORM” (EUBULUS BIOTHERAPEUTICS INC., priority 2020, published 2023)
Read-outs that look alike come from different tables or passages of the source.

Key:
Assay type in all cases: cell-based, human
NCIH82 cells = experiment: Cell proliferation experiment, NCI-H82; conditions: read-out: Inhibitory activity IC50 on NCI-H82
How it was run: (§1)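 Log-phase cells were seeded in 96-well plates and exposed to compound in complete medium over a 5-fold dilution series, in duplicate, for 72 h. Alamar blue fluorescence was read per well and IC50 was obtained by four-parameter curve fitting.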

Daudi cells = experiment: Cell proliferation experiment, Daudi; conditions: Daudi cells, read-out: Inhibitory activity IC50 on Daudi
How it was run: as §1

MDA-MB-231 cells = experiment: Cell proliferation experiment, MDA-MB-231; conditions: read-out: Inhibitory activity IC50 on MDA-MB-231
How it was run: as §1

MV4;11 cells = experiment: Cell proliferation experiment (Alamar blue, 72 h), MV4;11; conditions: read-out: Inhibitory activity IC50 on MV4;11
How it was run: as §1

PC-3 = experiment: Cell proliferation experiment, PC-3; conditions: read-out: Inhibitory activity IC50 on PC-3
How it was run: as §1

[1] = Homo sapiens, NCI-H82, NCI-H82 cells
[2] = Homo sapiens, MDA-MB-231, MDA-MB-231 cells
[3] = Homo sapiens, MV4-11, MV4;11 cells

Compound | IC50 (NCIH82 cells; [1]) [nM] | IC50 (Daudi cells; Homo sapiens, Daudi) [nM] | IC50 (MDA-MB-231 cells; [2]) [nM] | IC50 (MV4;11 cells; [3]) [nM] | IC50 (PC-3; Homo sapiens, PC-3, PC-3 cells) [nM] | IC50 (NCIH82 cells; NCI-H82 cells) [nM] | IC50 (Daudi cells) [nM] | IC50 (MDA-MB-231 cells; MDA-MB-231 cells) [nM] | IC50 (MV4;11 cells; MV4;11 cells) [nM] | IC50 (PC-3; PC-3 cells) [nM]
CNC(=O)c1ccccc1Nc1nc(Nc2ccc(N3CCN(C(=O)N[C@H]4CC[C@@H](NCCC#Cc5cccc6c5CN(C5CCC(=O)NC5=O)C6=O)CC4)CC3)cc2)ncc1Cl (some centres unmarked) [UB-181104] | 10 to 100 | 10 to 100 | 100 to 1000 | < 10 | 10 to 100 | – | – | – | – | –
CNC(=O)c1ccccc1Nc1nc(Nc2ccc(N3CCN(C(=O)N[C@H]4CC[C@@H](NCCOCCC#Cc5cccc6c5CN(C5CCC(=O)NC5=O)C6=O)CC4)CC3)cc2)ncc1Cl (some centres unmarked) [UB-181121] | – | – | – | – | – | 100 to 1000 | 100 to 1000 | 100 to 1000 | < 10 | 100 to 1000
CNC(=O)c1ccccc1Nc1nc(Nc2ccc(C3CCN(C(=O)N[C@H]4CC[C@@H](NCCOCCC#Cc5ccc6c(c5)CN(C5CCC(=O)NC5=O)C6=O)CC4)CC3)cc2)ncc1Cl (some centres unmarked) [UB-181122] | 100 to 1000 | 100 to 1000 | 100 to 1000 | < 10 | 100 to 1000 | – | – | – | – | –
CNC(=O)c1ccccc1Nc1nc(Nc2ccc(N3CCN(C(=O)NC4CCC(N[C@H]5CC[C@@H](OCC#Cc6ccc7c(c6)CN(C6CCC(=O)NC6=O)C7=O)CC5)CC4)CC3)cc2)ncc1Cl (some centres unmarked) [UB-181127] | 10 to 100 | 10 to 100 | 10 to 100 | < 10 | 10 to 100 | – | – | – | – | –
CNC(=O)c1ccccc1Nc1nc(Nc2ccc(N3CCN(C(=O)NC4CCC(NC5CCC(OCC#Cc6ccc7c(c6)CN(C6CCC(=O)NC6=O)C7=O)CC5)CC4)CC3)cc2)ncc1Cl (centres unmarked) [UB-181131] | 10 to 100 | 100 to 1000 | > 1000 | 10 to 100 | > 1000 | – | – | – | – | –
CNC(=O)c1ccccc1Nc1nc(Nc2ccc(C3CCN(C(=O)N[C@H]4CC[C@H](NCCC#Cc5cccc6c5CN(C5CCC(=O)NC5=O)C6=O)CC4)CC3)cc2)ncc1Cl (some centres unmarked) [UB-181138] | 10 to 100 | 100 to 1000 | 100 to 1000 | < 10 | 10 to 100 | – | – | – | – | –
CNC(=O)c1ccccc1Nc1nc(Nc2ccc(N3CCN(C(=O)N[C@H]4CC[C@@H](N[C@H]5C[C@H](C#Cc6ccc7c(c6)CN(C6CCC(=O)NC6=O)C7=O)C5)CC4)CC3)cc2)ncc1Cl (some centres unmarked) [UB-181181] | 100 to 1000 | > 1000 | > 1000 | 10 to 100 | 10 to 100 | – | – | – | – | –
NC(=O)c1ccccc1Nc1nc(Nc2ccc(C3CCN(C(=O)N[C@H]4CC[C@@H](NCCC#Cc5ccc6c(c5)CN(C5CCC(=O)NC5=O)C6=O)CC4)CC3)cc2)ncc1Cl (some centres unmarked) [UB-181182] | 10 to 100 | 100 to 1000 | 100 to 1000 | < 10 | 100 to 1000 | – | – | – | – | –
CNC(=O)c1ccccc1Nc1nc(Nc2ccc(N3CCC(C(=O)N[C@H]4CC[C@@H](NCCC#Cc5ccc6c(c5)CN(C5CCC(=O)NC5=O)C6=O)CC4)CC3)cc2)ncc1Cl (some centres unmarked) [UB-181184] | 10 to 100 | 10 to 100 | 100 to 1000 | < 10 | 10 to 100 | – | – | – | – | –
CNC(=O)c1ccccc1Nc1nc(Nc2ccc(N3CCN(C(=O)N[C@H]4CC[C@@H](N(C)CCC#Cc5ccc6c(c5)CN(C5CCC(=O)NC5=O)C6=O)CC4)CC3)cc2)ncc1Cl (some centres unmarked) [UB-181185] | 10 to 100 | 10 to 100 | 10 to 100 | < 10 | 10 to 100 | – | – | – | – | –
CNC(=O)c1ccccc1Nc1nc(Nc2ccc(N3CCC(C(=O)N[C@H]4CC[C@@H](NCCC#Cc5cccc6c5CN(C5CCC(=O)NC5=O)C6=O)CC4)CC3)cc2)ncc1Cl (some centres unmarked) [UB-181186] | 10 to 100 | 10 to 100 | 100 to 1000 | < 10 | < 10 | – | – | – | – | –
CNC(=O)c1ccccc1Nc1nc(Nc2ccc(N3CCN(C(=O)NC4CCC(NCCC#Cc5cccc6c5CN(C5CCC(=O)NC5=O)C6=O)CC4)CC3)cc2)ncc1Cl (centres unmarked) [UB-181187] | 100 to 1000 | > 1000 | > 1000 | 10 to 100 | 10 to 100 | – | – | – | – | –
NC(=O)c1ccccc1Nc1nc(Nc2ccc(N3CCN(C(=O)N[C@H]4CC[C@@H](NCCC#Cc5cccc6c5CN(C5CCC(=O)NC5=O)C6=O)CC4)CC3)cc2)ncc1Cl (some centres unmarked) [UB-181190] | 10 to 100 | 10 to 100 | 10 to 100 | < 10 | 10 to 100 | – | – | – | – | –
NC(=O)c1ccccc1Nc1nc(Nc2ccc(C3CCN(C(=O)N[C@H]4CC[C@@H](NCC(O)CC#Cc5ccc6c(c5)CN(C5CCC(=O)NC5=O)C6=O)CC4)CC3)cc2)ncc1Cl (some centres unmarked) [UB-181194] | > 1000 | > 1000 | > 1000 | < 10 | > 1000 | – | – | – | – | –
NC(=O)c1ccccc1Nc1nc(Nc2ccc(C3CCN(C(=O)N[C@H]4CC[C@@H](N[C@H]5C[C@H](C#Cc6ccc7c(c6)CN(C6CCC(=O)NC6=O)C7=O)C5)CC4)CC3)cc2)ncc1Cl (some centres unmarked) [UB-181198] | 10 to 100 | 10 to 100 | 10 to 100 | < 10 | 10 to 100 | – | – | – | – | –

Second part, the molecule after the results:

IC50 (NCIH82 cells; [1]) [nM] | IC50 (Daudi cells; Homo sapiens, Daudi) [nM] | IC50 (MDA-MB-231 cells; [2]) [nM] | IC50 (MV4;11 cells; [3]) [nM] | IC50 (PC-3; Homo sapiens, PC-3, PC-3 cells) [nM] | IC50 (NCIH82 cells; NCI-H82 cells) [nM] | IC50 (Daudi cells) [nM] | IC50 (MDA-MB-231 cells; MDA-MB-231 cells) [nM] | IC50 (MV4;11 cells; MV4;11 cells) [nM] | IC50 (PC-3; PC-3 cells) [nM] | Compound
– | – | – | – | – | 10 to 100 | 10 to 100 | 100 to 1000 | < 10 | 10 to 100 | CNC(=O)c1ccccc1Nc1nc(Nc2ccc(N3CCN(C(=O)N[C@H]4CC[C@@H](NCCOCCC#Cc5ccc6c(c5)CN(C5CCC(=O)NC5=O)C6=O)CC4)CC3)cc2)ncc1Cl (some centres unmarked) [UB-181115]
100 to 1000 | 100 to 1000 | 100 to 1000 | < 10 | 10 to 100 | – | – | – | – | – | CNC(=O)c1ccccc1Nc1nc(Nc2ccc(C3CCN(C(=O)N[C@H]4CC[C@H](NCCC#Cc5ccc6c(c5)CN(C5CCC(=O)NC5=O)C6=O)CC4)CC3)cc2)ncc1Cl (some centres unmarked) [UB-181137]
100 to 1000 | 100 to 1000 | 100 to 1000 | < 10 | 100 to 1000 | – | – | – | – | – | CNC(=O)c1ccccc1Nc1nc(Nc2ccc(N3CCN(C(=O)N[C@H]4CC[C@@H](NCCOCCC#Cc5cccc6c5CN(C5CCC(=O)NC5=O)C6=O)CC4)CC3)nc2)ncc1Cl (some centres unmarked) [UB-181141]
100 to 1000 | 100 to 1000 | 100 to 1000 | < 10 | 100 to 1000 | – | – | – | – | – | CNC(=O)c1ccccc1Nc1nc(Nc2ccc(N3CCN(C(=O)N[C@H]4CC[C@@H](NCCOCCC#Cc5ccc6c(c5)CN(C5CCC(=O)NC5=O)C6=O)CC4)CC3)nc2)ncc1Cl (some centres unmarked) [UB-181142]
100 to 1000 | 10 to 100 | 100 to 1000 | < 10 | 100 to 1000 | – | – | – | – | – | CNC(=O)c1ccccc1Nc1nc(Nc2ccc(C3CCN(C(=O)N[C@H]4CC[C@@H](NCCC#Cc5ccc6c(c5)CN(C5CCC(=O)NC5=O)C6=O)CC4)CC3)cc2)ncc1Cl (some centres unmarked) [UB-181168]
100 to 1000 | 100 to 1000 | > 1000 | 10 to 100 | 10 to 100 | – | – | – | – | – | CNC(=O)c1ccccc1Nc1nc(Nc2ccc(N3CCN(C(=O)N[C@H]4CC[C@@H](NCCC#Cc5ccc6c(c5)CN(C5CCC(=O)NC5=O)C6=O)CC4)CC3)nc2)ncc1Cl (some centres unmarked) [UB-181169]
> 1000 | > 1000 | > 1000 | 10 to 100 | 10 to 100 | – | – | – | – | – | CNC(=O)c1ccccc1Nc1nc(Nc2ccc(N3CCN(C(=O)N[C@H]4CC[C@@H](NCCC#Cc5cccc6c5CN(C5CCC(=O)NC5=O)C6=O)CC4)CC3)nc2)ncc1Cl (some centres unmarked) [UB-181173]
> 1000 | 10 to 100 | > 1000 | 10 to 100 | 10 to 100 | – | – | – | – | – | CNC(=O)c1ccccc1Nc1nc(Nc2ccc(N3CCN(C(=O)N[C@H]4CC[C@H](NCCC#Cc5ccc6c(c5)CN(C5CCC(=O)NC5=O)C6=O)CC4)CC3)nc2)ncc1Cl (some centres unmarked) [UB-181174]
10 to 100 | 10 to 100 | > 1000 | 10 to 100 | 10 to 100 | – | – | – | – | – | CNC(=O)c1ccccc1Nc1nc(Nc2ccc(N3CCN(C(=O)N[C@H]4CC[C@@H](NCCC#Cc5ccc6c(c5)CN(C5CCC(=O)NC5=O)C6=O)CC4)CC3)cn2)ncc1Cl (some centres unmarked) [UB-181188]
10 to 100 | < 10 | 10 to 100 | < 10 | < 10 | – | – | – | – | – | NC(=O)c1ccccc1Nc1nc(Nc2ccc(N3CCN(C(=O)N[C@H]4CC[C@@H](NCCC#Cc5ccc6c(c5)CN(C5CCC(=O)NC5=O)C6=O)CC4)CC3)cc2)ncc1Cl (some centres unmarked) [UB-181189]
